In publication PMC11277992, “New Zosteropenillines and Pallidopenillines from the Seagrass-Derived Fungus Penicillium yezoense KMM 4679” (Marine Drugs, 2024):

How the values were obtained:
[1] = test system: LPS-stimulated RAW264.7 murine macrophages; parameters: method as in PMID 28218691; details: cited from earlier work
[2] = test system: CoCl2-treated HEK-293 cells; assay: Cytoprotective activity, CoCl2-mimic hypoxia, cell viability (MTT); type: cell-based, human; details: CoCl2 at 500 µM for 24 h
Protocol: The HEK-293 cells were exposed to cobalt chloride (II) at a 500 µM for 1 h and then the compounds were added. After 24 h, the viability of the cells was measured via MTT assay as described earlier.

[3] = test system: CoCl2-treated HEK-293 cells; assay: Lipid peroxidation level (MitoCLox) in CoCl2-treated cells; type: cell-based, human; details: toxic effect of CoCl2; MitoCLox fluorescence dye
Protocol: The fluorescence probe MitoCLox (Lumiprobe, Moscow, Russia) was used for the detection of the lipid peroxidation level in CoCl2-treated cells. It was added in the cells for 1 h at a concentration of 200 nM. After 1 h, the cells were washed with PBS and fluorescence was measured in ratiometric mode with λem = 520/590 nm using a PHERAStar FS plate reader (BMG Labtech, Offenburg, Germany). The data were processed with MARS Data Analysis v. 3.01R2 (BMG Labtech, Offenburg, Germany) and calculated as a 520/590 ratio.

[4] = test system: cervical HeLa cancer cells; assay: Cytotoxic activity (MTT assay); type: cell-based, human; details: 100 µM, 24 h, MTT
[5] = test system: breast MCF-7 cancer cells; assay: Cytotoxic activity (MTT assay); type: cell-based, human; details: 100 µM, 24 h, MTT
Protocol: (§1) The influence of compounds 1, 2 and 4–14 on the viability of normal human kidney […] cells, as well as human prostate PC-3, cervical HeLa and breast MCF-7 cancer cells, was measured using the MTT assay after 24 h of treatment.
(§2) PC-3 cells (5 × 10^3 cells/well) and HEK 293 cells (8 × 10^3 cells/well) were seeded in a 96-well plate and incubated overnight. […] Cell viability was then determined by the MTT (3-(4,5-dimethylthiazol-2-yl)-2,5-diphenyltetrazolium bromide) method according to the manufacturer’s instructions (Sigma-Aldrich, St. Louis, MO, USA). The absorbance of the converted formazan was measured using a Multiskan FC microplate photometer (Thermo Scientific, Waltham, MA, USA) at λ = 570 nm. The results are presented as percentages of the control data.

[6] = test system: human prostate PC-3 cancer cells; assay: Cytotoxic activity (MTT assay); type: cell-based; details: 100 µM, 24 h, MTT
Protocol: (§3) The human prostate cancer cells PC-3 and CRL-1435 and the human embryonic kidney cells HEK-293 and CRL-1573TM were purchased from the American Type Culture Collection (ATCC; Manassas, VA, USA). PC-3 and HEK-293 cells were cultured in DMEM medium containing 10% fetal bovine serum (Biolot, St. Petersburg, Russia) and 1% penicillin/streptomycin (Biolot, St. Petersburg, Russia) at 37 °C in a humidified atmosphere with 5% (v/v) CO2. The cells were incubated in cultural flasks until sub-confluent (~80%).
as §2

[7] = test system: Staphylococcus aureus ATCC 21027; assay: Antimicrobial activity, microbial growth in broth (OD620); type: cell-based; details: ATCC21027, compound at 100 µM, read-out: Inhibition of Microbial Growth, % of Control, S. aureus
Protocol: (§4) The yeast-like fungus Candida albicans KMM 455 and bacterial strains Staphylococcus aureus ATCC 21027 and Escherichia coli VKPM (B-7935) (Collection of Marine Microorganisms PIBOC FEB RAS) were cultured on solid-medium Mueller–Hinton broth with agar (16.0 g/L) in a Petri dish at 37 °C for 24 h. The assays were performed in 96-well microplates in an appropriate Mueller–Hinton broth. Each well contained 90 µL of a bacterial or yeast-like fungal suspension (10^6 CFU/mL). Then, 10 µL was added of a compound diluted at concentrations from 1.5 µM to 100.0 µM using twofold dilution (DMSO concentration < 1%). Culture plates were incubated overnight at 37 °C, and the OD620 was measured using a Multiskan FC spectrophotometer (Thermo Scientific Inc., Beverly, MA, USA). The antibiotic gentamicin and antifungal agent nitrofungin were used as positive controls at 1 mg/mL; 1% DMSO in PBS served as a negative control. Examination was performed twice and in triplicate. The results were calculated as a percentage of the control data using SigmaPlot 14.0 software.

Candida albicans KMM 455 = assay: as above; type: cell-based; details: Candida albicans, KMM455; compound at 100 µM; read-out: Inhibition of Microbial Growth, % of Control, C. albicans
Protocol: as §4

[8] = test system: Escherichia coli VKPM (B-7935); assay: as above; type: cell-based; details: compound at 100 µM, read-out: Inhibition of Microbial Growth, % of Control, E. coli
Protocol: as §4

[9] = test system: normal human kidney cells; assay: Cytotoxic activity (MTT assay); type: cell-based; details: 100 µM, 24 h
Protocol: as §1, §3
PC-3 cells (5 × 10^3 cells/well) and HEK 293 cells (8 × 10^3 cells/well) were seeded in a 96-well plate and incubated overnight. Then, compounds were added at concentrations of 1–100 μM and incubated for another 24 h. Cell viability was then determined by the MTT (3-(4,5-dimethylthiazol-2-yl)-2,5-diphenyltetrazolium bromide) method according to the manufacturer’s instructions (Sigma-Aldrich, St. Louis, MO, USA). The absorbance of the converted formazan was measured using a Multiskan FC microplate photometer (Thermo Scientific, Waltham, MA, USA) at λ = 570 nm. The results are presented as percentages of the control data.

C[C@]12C=C[C@H]3C[C@@H](CO)CC[C@@H]3[C@H]1C(=O)CCO2 [zosteropenilline B]
effect on NO levels [1]: downregulate

[Cl-].[Cl-].[Co+2] [CoCl2, cobalt (II) chloride, reference compound]
decrease of the viability of HEK-293 cells [2]: 75%
lipid peroxide levels in HEK-293 cells [3]: significant increase

C[C@@]1(O)C=C[C@H]2C[C@@H](CO)CC[C@@H]2[C@H]1C(=O)CCO [Compound 12, zosteropenilline J]
Cell Viability, % of Control, HeLa [4]: 66.70 ± 6.64 % of Control
Cell Viability, % of Control, MCF-7 [5]: 82.77 ± 1.36 % of Control
effect on NO levels [1]: downregulate
Cell Viability, % of Control, PC-3 [6]: 87.01 ± 2.71 % of Control
inhibition of growth at 100 µM [7]: 20.3 ± 1.2%
inhibition of growth at 100 µM (Candida albicans KMM 455): 6.61 ± 1.12%
inhibition of growth at 100 µM [8]: 0%
Cell Viability, % of Control, HEK-298 [9]: 87.01 ± 2.71 % of Control

CC1=C[C@H](O)[C@H]2[C@H](O)[C@@H](C)CC[C@@H]2[C@H]1C(=O)CCO [zosteropenilline H]
effect on NO levels [1]: downregulate
